# Experimental data reported in PubChem BioAssay AID1963983 (Molecular Pharmacology Branch, DTP, NCI, 2024).
# Tested on: 186277-243-T-J2-PDC multi-cell spheroid viability
# Assay: Anticancer human tumor 186277-243-T-J2-PDC patient-derived colon adenocarcinoma cell line growth inhibition [PI3K]
# Details: for IC50: curve of first compound; for viability, T/C: stronger effect = lower value
# Method in brief: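 Tumor cells grown as multi-cell spheroids with HUVEC endothelial cells and MSC fibroblast-like stroma were treated with targeted agents combined with inavolisib, alpelisib, duvelisib or copanlisib. Doses fell in half-log steps from near clinical Cmax, else from 10 microM. Viability was measured.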
# [1] = second compound 0.00316 µM, first compound 0.0316 µM
# [2] = second compound 0.00316 µM, first compound 0.1 µM
# [3] = second compound 0.00316 µM, first compound 0.316 µM
# [4] = second compound 0.00316 µM, first compound 1 µM
# [5] = second compound 0.00316 µM, first compound 3.16 µM
# [6] = second compound 0.00316 µM, first compound 10 µM
# [7] = second compound 0.01 µM, first compound 0.0316 µM
# [8] = second compound 0.01 µM, first compound 0.1 µM
# [9] = second compound 0.01 µM, first compound 0.316 µM
# [10] = second compound 0.01 µM, first compound 1 µM
# [11] = second compound 0.01 µM, first compound 3.16 µM
# [12] = second compound 0.01 µM, first compound 10 µM
# [13] = second compound 0.0316 µM, first compound 0.0316 µM
# [14] = second compound 0.0316 µM, first compound 0.1 µM
# [15] = second compound 0.0316 µM, first compound 0.316 µM
# [16] = second compound 0.0316 µM, first compound 1 µM
# [17] = second compound 0.0316 µM, first compound 3.16 µM
# [18] = second compound 0.0316 µM, first compound 10 µM
# [19] = second compound 0.1 µM, first compound 0.0316 µM
# [20] = second compound 0.1 µM, first compound 0.1 µM
# [21] = second compound 0.1 µM, first compound 0.316 µM
# [22] = second compound 0.1 µM, first compound 1 µM
# [23] = second compound 0.1 µM, first compound 3.16 µM
# [24] = second compound 0.1 µM, first compound 10 µM
# [25] = second compound 0.316 µM, first compound 0.0316 µM
# [26] = second compound 0.316 µM, first compound 0.1 µM
# [27] = second compound 0.316 µM, first compound 0.316 µM
# [28] = second compound 0.316 µM, first compound 1 µM
# [29] = second compound 0.316 µM, first compound 3.16 µM
# [30] = second compound 0.316 µM, first compound 10 µM
# [31] = second compound 1 µM, first compound 0.0316 µM
# [32] = second compound 1 µM, first compound 0.1 µM
# [33] = second compound 1 µM, first compound 0.316 µM
# [34] = second compound 1 µM, first compound 1 µM
# [35] = second compound 1 µM, first compound 3.16 µM
# [36] = second compound 1 µM, first compound 10 µM
# 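Note: spheroids exposed to compounds for seven days before viability reading.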
# 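Throughout, for viability, T/C: 100% = DMSO vehicle control viability.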
smiles,measurement,setting,value
CCCS(=O)(=O)Nc1ccc(F)c(C(=O)c2c[nH]c3ncc(-c4ccc(Cl)cc4)cc23)c1F + COc1c(OCCCN2CCOCC2)ccc2c3n(c(=NC(=O)c4cnc(N)nc4)nc12)CCN3,IC50,second compound 0.00316 µM,4900 nM
same,IC50,second compound 0.01 µM,5600 nM
same,IC50,second compound 0.0316 µM,5160 nM
same,IC50,second compound 0.1 µM,< 31.6 nM
same,IC50,second compound 0.316 µM,< 31.6 nM
same,IC50,second compound 1 µM,< 31.6 nM
same,"viability, T/C",[1],114%
same,"viability, T/C",[2],99.1%
same,"viability, T/C",[3],84.9%
same,"viability, T/C",[4],83.5%
same,"viability, T/C",[5],79.4%
same,"viability, T/C",[6],14.2%
same,"viability, T/C",[7],105%
same,"viability, T/C",[8],90.1%
same,"viability, T/C",[9],110%
same,"viability, T/C",[10],90.3%
same,"viability, T/C",[11],87%
same,"viability, T/C",[12],13.8%
same,"viability, T/C",[13],81.1%
same,"viability, T/C",[14],68.5%
same,"viability, T/C",[15],96.3%
same,"viability, T/C",[16],88.2%
same,"viability, T/C",[17],77.9%
same,"viability, T/C",[18],12.2%
same,"viability, T/C",[19],23.1%
same,"viability, T/C",[20],27.3%
same,"viability, T/C",[21],29.4%
same,"viability, T/C",[22],46.7%
same,"viability, T/C",[23],46%
same,"viability, T/C",[24],7.08%
same,"viability, T/C",[25],7.65%
same,"viability, T/C",[26],8.23%
same,"viability, T/C",[27],7.39%
same,"viability, T/C",[28],8.35%
same,"viability, T/C",[29],12.3%
same,"viability, T/C",[30],2.99%
same,"viability, T/C",[31],3.27%
same,"viability, T/C",[32],3.82%
same,"viability, T/C",[33],3.96%
same,"viability, T/C",[34],4.58%
same,"viability, T/C",[35],7.64%
same,"viability, T/C",[36],2.38%
C[C@@H](NC(=O)c1ncnc(N)c1Cl)c1ncc(C(=O)Nc2cc(C(F)(F)F)c(Cl)cn2)s1 + COc1c(OCCCN2CCOCC2)ccc2c3n(c(=NC(=O)c4cnc(N)nc4)nc12)CCN3,IC50,second compound 0.00316 µM,> 10000 nM
same,IC50,second compound 0.01 µM,8020 nM
same,IC50,second compound 0.0316 µM,1640 nM
same,IC50,second compound 0.1 µM,< 31.6 nM
same,IC50,second compound 0.316 µM,< 31.6 nM
same,IC50,second compound 1 µM,< 31.6 nM
same,"viability, T/C",[1],97.9%
same,"viability, T/C",[2],94%
same,"viability, T/C",[3],107%
same,"viability, T/C",[4],90.4%
same,"viability, T/C",[5],108%
same,"viability, T/C",[6],67.7%
same,"viability, T/C",[7],128%
same,"viability, T/C",[8],102%
same,"viability, T/C",[9],113%
same,"viability, T/C",[10],96.9%
same,"viability, T/C",[11],98.4%
same,"viability, T/C",[12],38.7%
same,"viability, T/C",[13],87.7%
same,"viability, T/C",[14],82%
same,"viability, T/C",[15],81.6%
same,"viability, T/C",[16],68.5%
same,"viability, T/C",[17],25.9%
same,"viability, T/C",[18],5.51%
same,"viability, T/C",[19],37.9%
same,"viability, T/C",[20],30.7%
same,"viability, T/C",[21],25.7%
same,"viability, T/C",[22],13.2%
same,"viability, T/C",[23],7.38%
same,"viability, T/C",[24],4.45%
same,"viability, T/C",[25],7.07%
same,"viability, T/C",[26],7.19%
same,"viability, T/C",[27],7.95%
same,"viability, T/C",[28],6.31%
same,"viability, T/C",[29],1.83%
same,"viability, T/C",[30],1.23%
same,"viability, T/C",[31],4.1%
same,"viability, T/C",[32],2.89%
same,"viability, T/C",[33],2.41%
same,"viability, T/C",[34],2.48%
same,"viability, T/C",[35],1.54%
same,"viability, T/C",[36],0.23%
Cn1ncnc1[C@H]1c2n[nH]c(=O)c3cc(F)cc(c23)N[C@@H]1c1ccc(F)cc1 + COc1c(OCCCN2CCOCC2)ccc2c3n(c(=NC(=O)c4cnc(N)nc4)nc12)CCN3,IC50,second compound 0.00316 µM,> 100 nM
same,IC50,second compound 0.01 µM,> 100 nM
same,IC50,second compound 0.0316 µM,21.4 nM
same,IC50,second compound 0.1 µM,< 0.316 nM
same,IC50,second compound 0.316 µM,< 0.316 nM
same,IC50,second compound 1 µM,< 0.316 nM
same,"viability, T/C","second compound 0.00316 µM, first compound 0.000316 µM",102%
same,"viability, T/C","second compound 0.00316 µM, first compound 0.001 µM",100%
same,"viability, T/C","second compound 0.00316 µM, first compound 0.00316 µM",105%
same,"viability, T/C","second compound 0.00316 µM, first compound 0.01 µM",80.9%
same,"viability, T/C",[1],88%
same,"viability, T/C",[2],79.5%
same,"viability, T/C","second compound 0.01 µM, first compound 0.000316 µM",93.8%
same,"viability, T/C","second compound 0.01 µM, first compound 0.001 µM",96%
same,"viability, T/C","second compound 0.01 µM, first compound 0.00316 µM",83.6%
same,"viability, T/C","second compound 0.01 µM, first compound 0.01 µM",98.3%
same,"viability, T/C",[7],85.5%
same,"viability, T/C",[8],68.7%
same,"viability, T/C","second compound 0.0316 µM, first compound 0.000316 µM",66%
same,"viability, T/C","second compound 0.0316 µM, first compound 0.001 µM",63.8%
same,"viability, T/C","second compound 0.0316 µM, first compound 0.00316 µM",58.9%
same,"viability, T/C","second compound 0.0316 µM, first compound 0.01 µM",54.6%
same,"viability, T/C",[13],47.2%
same,"viability, T/C",[14],40.8%
same,"viability, T/C","second compound 0.1 µM, first compound 0.000316 µM",22.2%
same,"viability, T/C","second compound 0.1 µM, first compound 0.001 µM",15.9%
same,"viability, T/C","second compound 0.1 µM, first compound 0.00316 µM",16.7%
same,"viability, T/C","second compound 0.1 µM, first compound 0.01 µM",13%
same,"viability, T/C",[19],14.1%
same,"viability, T/C",[20],9.78%
same,"viability, T/C","second compound 0.316 µM, first compound 0.000316 µM",4.1%
same,"viability, T/C","second compound 0.316 µM, first compound 0.001 µM",7.07%
same,"viability, T/C","second compound 0.316 µM, first compound 0.00316 µM",5.01%
same,"viability, T/C","second compound 0.316 µM, first compound 0.01 µM",6.2%
same,"viability, T/C",[25],4.54%
same,"viability, T/C",[26],4.17%
same,"viability, T/C","second compound 1 µM, first compound 0.000316 µM",3.72%
same,"viability, T/C","second compound 1 µM, first compound 0.001 µM",4.99%
same,"viability, T/C","second compound 1 µM, first compound 0.00316 µM",1.76%
same,"viability, T/C","second compound 1 µM, first compound 0.01 µM",1.73%
same,"viability, T/C",[31],3.49%
same,"viability, T/C",[32],2.04%
